Measured values published in ChEMBL document CHEMBL5244242, “1,4-Benzodioxane, an evergreen, versatile scaffold in medicinal chemistry: A review of its recent applications in drug design” (Eur J Med Chem, 2020).
Values belong to the compound of their own block, whether it stands above or below them.

Assays:
U-251 = assay: Anticancer activity against human U-251 cells assessed as cell growth inhibition incubated for 24 hrs by MTT assay; type: functional, cell-based; conditions: U-251, 24 h
HeLa = assay: Anticancer activity against human HeLa cells assessed as cell growth inhibition incubated for 24 hrs by MTT assay; type: functional, cell-based
[1] = target: T1, Tyrosine-protein kinase JAK3 (Homo sapiens, UniProt P52333); assay: Inhibition of JAK3 (unknown origin) incubated for 20 mins
T1 sequence (P52333 whole entry): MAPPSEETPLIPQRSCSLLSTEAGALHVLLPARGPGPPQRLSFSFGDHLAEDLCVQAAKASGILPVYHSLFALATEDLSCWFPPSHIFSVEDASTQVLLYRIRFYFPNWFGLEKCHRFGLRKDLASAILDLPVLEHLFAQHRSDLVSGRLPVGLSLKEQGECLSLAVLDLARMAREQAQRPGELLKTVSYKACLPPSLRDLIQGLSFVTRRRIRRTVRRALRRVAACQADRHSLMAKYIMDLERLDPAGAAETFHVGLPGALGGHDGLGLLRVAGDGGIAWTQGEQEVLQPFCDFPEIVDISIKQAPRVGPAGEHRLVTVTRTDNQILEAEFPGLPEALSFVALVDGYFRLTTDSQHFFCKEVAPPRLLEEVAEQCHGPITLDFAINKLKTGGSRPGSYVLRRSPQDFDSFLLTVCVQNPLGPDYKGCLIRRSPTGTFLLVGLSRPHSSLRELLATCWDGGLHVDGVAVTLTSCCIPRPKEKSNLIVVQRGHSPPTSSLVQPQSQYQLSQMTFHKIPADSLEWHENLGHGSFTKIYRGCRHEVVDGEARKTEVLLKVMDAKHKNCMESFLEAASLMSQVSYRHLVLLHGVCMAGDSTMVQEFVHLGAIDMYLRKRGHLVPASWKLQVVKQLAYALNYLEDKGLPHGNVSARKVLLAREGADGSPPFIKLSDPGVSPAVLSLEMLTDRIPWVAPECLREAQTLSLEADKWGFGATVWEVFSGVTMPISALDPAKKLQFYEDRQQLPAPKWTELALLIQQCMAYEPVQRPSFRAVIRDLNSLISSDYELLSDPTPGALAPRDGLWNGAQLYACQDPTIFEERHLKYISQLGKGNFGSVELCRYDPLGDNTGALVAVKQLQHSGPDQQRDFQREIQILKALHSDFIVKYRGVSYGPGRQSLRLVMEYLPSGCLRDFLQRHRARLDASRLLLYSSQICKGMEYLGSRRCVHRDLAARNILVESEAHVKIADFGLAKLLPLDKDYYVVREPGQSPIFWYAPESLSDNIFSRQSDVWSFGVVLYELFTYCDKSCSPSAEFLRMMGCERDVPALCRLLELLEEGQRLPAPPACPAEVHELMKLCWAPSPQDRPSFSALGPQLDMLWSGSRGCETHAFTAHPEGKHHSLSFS

A549 = assay: Anticancer activity against human A549 cells assessed as cell growth inhibition incubated for 24 hrs by MTT assay; type: functional, cell-based; conditions: A549, 24 h
HepG2 = assay: Anticancer activity against human HepG2 cells assessed as cell growth inhibition incubated for 24 hrs by MTT assay; type: functional, cell-based; conditions: HepG2, 24 h
[2] = target: T2, Prostaglandin G/H synthase 2 (Homo sapiens, UniProt P35354); assay: Inhibition of COX2 (unknown origin)
T2 sequence (P35354 whole entry): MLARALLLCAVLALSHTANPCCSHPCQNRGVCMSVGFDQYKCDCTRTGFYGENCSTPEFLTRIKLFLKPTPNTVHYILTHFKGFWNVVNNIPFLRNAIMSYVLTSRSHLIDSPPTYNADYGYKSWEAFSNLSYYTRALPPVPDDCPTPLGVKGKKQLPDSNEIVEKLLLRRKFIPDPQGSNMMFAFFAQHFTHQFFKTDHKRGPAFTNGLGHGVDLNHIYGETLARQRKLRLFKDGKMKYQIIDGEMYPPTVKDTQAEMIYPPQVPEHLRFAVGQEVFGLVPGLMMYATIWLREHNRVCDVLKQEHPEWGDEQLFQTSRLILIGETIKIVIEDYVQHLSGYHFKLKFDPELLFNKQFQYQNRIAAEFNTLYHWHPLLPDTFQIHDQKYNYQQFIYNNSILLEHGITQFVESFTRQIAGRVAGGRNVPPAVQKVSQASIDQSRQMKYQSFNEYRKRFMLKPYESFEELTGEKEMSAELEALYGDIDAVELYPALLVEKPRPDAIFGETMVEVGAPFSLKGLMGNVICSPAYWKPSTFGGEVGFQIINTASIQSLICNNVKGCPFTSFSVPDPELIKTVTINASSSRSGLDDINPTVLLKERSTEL

[3] = target: Prostaglandin G/H synthase 1 (Homo sapiens, UniProt P23219); assay: Inhibition of COX1 (unknown origin)
Chain of Prostaglandin G/H synthase 1 (P23219 whole entry): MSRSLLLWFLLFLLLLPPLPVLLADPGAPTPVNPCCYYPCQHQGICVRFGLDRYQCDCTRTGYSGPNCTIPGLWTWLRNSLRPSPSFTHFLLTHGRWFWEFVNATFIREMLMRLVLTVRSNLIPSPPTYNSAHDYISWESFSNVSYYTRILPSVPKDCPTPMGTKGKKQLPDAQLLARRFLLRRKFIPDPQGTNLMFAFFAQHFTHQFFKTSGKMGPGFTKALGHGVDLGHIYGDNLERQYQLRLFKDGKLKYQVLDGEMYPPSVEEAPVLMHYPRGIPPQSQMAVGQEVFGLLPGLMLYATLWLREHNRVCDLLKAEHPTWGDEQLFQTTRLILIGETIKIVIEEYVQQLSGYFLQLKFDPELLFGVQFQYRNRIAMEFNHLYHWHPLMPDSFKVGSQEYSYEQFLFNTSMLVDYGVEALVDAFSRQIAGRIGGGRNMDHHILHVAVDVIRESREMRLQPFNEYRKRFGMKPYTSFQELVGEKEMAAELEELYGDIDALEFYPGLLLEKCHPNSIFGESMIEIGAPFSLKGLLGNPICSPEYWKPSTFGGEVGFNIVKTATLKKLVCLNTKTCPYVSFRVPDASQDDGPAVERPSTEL

Staphylococcus aureus = assay: Antibacterial activity against Staphylococcus aureus assessed as bacterial growth inhibition incubated for 24 hrs by MTT based ELISA analysis; type: functional
Bacillus subtilis = assay: Antibacterial activity against Bacillus subtilis assessed as bacterial growth inhibition incubated for 24 hrs by MTT based ELISA analysis; type: functional
Escherichia coli = assay: Antibacterial activity against Escherichia coli FabH assessed as bacterial growth inhibition incubated for 24 hrs by MTT based ELISA analysis; type: functional, organism-based

IC50 (U-251): 44 nM | IC50 (HeLa): 21 nM | IC50 [1]: 9 nM | IC50 (A549): 65 nM | IC50 (HepG2): 16 nM
Compound: O=C(OCCn1c([N+](=O)[O-])cnc1/C=C/c1ccc(Cl)cc1Cl)c1ccc2c(c1)OCCO2

IC50 [2]: 9900 nM | IC50 [3]: 1900 nM
Compound: COc1cc(C2Oc3cc(C=Cc4cc(O)cc(O)c4)ccc3OC2CO)cc(OC)c1O (stereo not drawn)

MIC (Staphylococcus aureus): 1.5 µg/mL | MIC (Bacillus subtilis): 6 µg/mL
Compound: O=C(N/N=C/C=C/c1ccccc1[N+](=O)[O-])c1cccc2c1OCCO2
IC50 (Escherichia coli): 3500 nM

MIC (Staphylococcus aureus): 1.5 µM | MIC (Bacillus subtilis): 1.5 µM
Compound: O=C(CN1CCN(c2ccccn2)CC1)N1C(=O)S/C(=C\c2ccc3c(c2)OCCO3)C1=O
IC50 (Escherichia coli): 60 nM
